Experimental data taken from patent publication US12503475B2 (Centessa Pharmaceuticals (UK) Limited, priority 2020, dated 2025).
Several values for one entry are separate records, joined by “and”; a condition that tells them apart may be missing. Equal values may be shown once. Read-outs that look alike come from different tables or passages of the source.

Target: T1, human orexin type 2 receptor (hOX2R) (Homo sapiens, UniProt O43614)
T1 construct: expressed in transfected cells
T1 sequence (O43614 1-444): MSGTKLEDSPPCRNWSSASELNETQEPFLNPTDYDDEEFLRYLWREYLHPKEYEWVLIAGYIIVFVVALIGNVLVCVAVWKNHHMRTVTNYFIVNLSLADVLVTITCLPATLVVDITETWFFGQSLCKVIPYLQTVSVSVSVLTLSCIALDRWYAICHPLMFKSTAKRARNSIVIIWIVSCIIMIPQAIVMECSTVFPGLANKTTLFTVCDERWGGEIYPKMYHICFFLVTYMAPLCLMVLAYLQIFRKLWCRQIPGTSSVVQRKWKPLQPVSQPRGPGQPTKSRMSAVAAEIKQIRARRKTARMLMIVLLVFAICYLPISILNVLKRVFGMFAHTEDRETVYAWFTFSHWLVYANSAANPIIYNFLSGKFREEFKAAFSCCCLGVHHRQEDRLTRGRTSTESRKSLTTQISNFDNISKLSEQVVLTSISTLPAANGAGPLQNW
Assay: Measurement of orexin type 2 receptor agonist activity (FLIPR calcium fluorescence)
Type: cell-based
Conditions: for Emax: CHO, read-out: hOx2 Emax (%)
Procedure, shortened: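 Agonism was read as fluorescence in cells stably expressing human OX2R. E. is the response at 10 μM relative to orexin A as full agonist (100%).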

[1] = CHO cells expressing hOX2R, FLIPR calcium fluorescence, read-out: hOx2 pEC50 (converted)
[2] = CHO cells expressing hOX2R, FLIPR calcium fluorescence

Structure (SMILES)	EC50 [1]	Emax [2] [%]	hOx2 Emax (%) [2]	Emax [%]	EC50 (hOx2 pEC50, CHO cells expressing hOX2R, FLIPR calcium fluorescence) [nM]
CS(=O)(=O)N[C@H]1[C@@H](Cc2cccc(-c3cccc(F)c3)c2F)N(C(=O)N2CCC2)CC12CC2 [Compound 26, N-((6R,7R)-5-(azetidine-1-carbonyl)-6-((2,3′-difluoro-[1,1′-biphenyl]-3-yl)methyl)-5-azaspiro[2.4]heptan-7-yl)methanesulfonamide]	10 to 100 nM	90 to 100			
CS(=O)(=O)N[C@@H]1[C@H](Cc2cccc(-c3cccc(F)c3)c2F)N(C(=O)N2CCC2)CC12CC2 [Compound 27, N-((6S,7S)-5-(azetidine-1-carbonyl)-6-((2,3′-difluoro-[1,1′-biphenyl]-3-yl)methyl)-5-azaspiro[2.4]heptan-7-yl)methanesulfonamide]	1 to 10 nM and 0.0794 to 1 nM	90 to 100			
CS(=O)(=O)N[C@H]1[C@@H](Cc2cccc(-c3cc(F)cc(F)c3)c2F)N(C(=O)N2CCC2)CC12CC2 [Compound 31, N-((6R,7R)-5-(azetidine-1-carbonyl)-6-((2,3′,5′-trifluoro-[1,1′-biphenyl]-3-yl)methyl)-5-azaspiro[2.4]heptan-7-yl)methanesulfonamide]	10 to 100 nM	90 to 100			
CS(=O)(=O)N[C@@H]1[C@H](Cc2cccc(-c3cc(F)cc(F)c3)c2F)N(C(=O)N2CCC2)CC12CC2 [Compound 32, N-((6S,7S)-5-(azetidine-1-carbonyl)-6-((2,3′,5′-trifluoro-[1,1′-biphenyl]-3-yl)methyl)-5-azaspiro[2.4]heptan-7-yl)methanesulfonamide]	0.0794 to 1 nM	90 to 100			
CS(=O)(=O)N[C@@H]1[C@H](Cc2cccc(-c3cc(F)cc(F)c3)c2F)N(C(=O)C2CCC2)CC12CC2 [Compound 33, N-((6S,7S)-5-(cyclobutanecarbonyl)-6-((2,3′,5′-trifluoro-[1,1′-biphenyl]-3-yl)methyl)-5-azaspiro[2.4]heptan-7-yl)methanesulfonamide]	0.0794 to 1 nM	90 to 100			
CC(C)(O)C(=O)N1CC2(CC2)[C@H](NS(C)(=O)=O)[C@@H]1Cc1cccc(-c2cc(F)cc(F)c2)c1F [Compound 34, N-((6S,7S)-5-(2-hydroxy-2-methylpropanoyl)-6-((2,3′,5′-trifluoro-[1,1′-biphenyl]-3-yl)methyl)-5-azaspiro[2.4]heptan-7-yl)methanesulfonamide]	1 to 10 nM	90 to 100			
CS(=O)(=O)N[C@@H]1[C@H](Cc2cccc(-c3ccccc3)c2F)N(C(=O)N2CCC2)CC12CC2 [Compound 35, N-((6S,7S)-5-(azetidine-1-carbonyl)-6-((2-fluoro-[1,1′-biphenyl]-3-yl)methyl)-5-azaspiro[2.4]heptan-7-yl)methanesulfonamide]	1 to 10 nM	90 to 100			
CS(=O)(=O)N[C@@H]1[C@H](Cc2cccc(-c3cc(F)cc(F)c3)c2F)N(C(=O)[C@H]2CCO2)CC12CC2 [Compound 39, N-((6S,7S)-5-((R)-oxetane-2-carbonyl)-6-((2,3′,5′-trifluoro-[1,1′-biphenyl]-3-yl)methyl)-5-azaspiro[2.4]heptan-7-yl)methanesulfonamide]	1 to 10 nM	90 to 100			
CS(=O)(=O)N[C@@H]1[C@H](Cc2cccc(-c3ccccc3F)c2)N(C(=O)[C@H]2CCO2)CC12CC2 [Compound 40, N-((6S,7S)-6-((2′-fluoro-[1,1′-biphenyl]-3-yl)methyl)-5-((R)-oxetane-2-carbonyl)-5-azaspiro[2.4]heptan-7-yl)methanesulfonamide]	10 to 100 nM	90 to 100			
CCS(=O)(=O)N[C@@H]1[C@H](Cc2cccc(-c3ccccc3)c2)N(C(=O)[C@H]2CCO2)CC12CC2 [Compound 41]	1 to 10 nM	90 to 100			
CCNC(=O)N1CC2(CC2)[C@H](NS(C)(=O)=O)[C@@H]1Cc1cccc(-c2ccccc2)c1OC [Compound 54, (6S,7S)—N-ethyl-6-((2-methoxy-[1,1′-biphenyl]-3-yl)methyl)-7-(methylsulfonamido)-5-azaspiro[2.4]heptane-5-carboxamide]				80 to 90	1 to 10

Now from value to molecule, other results behind:

EC50 [1]	Emax [2] [%]	hOx2 Emax (%) [2]	Structure (SMILES)	Emax [%]	EC50 (hOx2 pEC50, CHO cells expressing hOX2R, FLIPR calcium fluorescence) [nM]
1 to 10 nM	90 to 100		O=C([C@H]1CCO1)N1CC2(CC2)[C@H](NS(=O)(=O)C2CC2)[C@@H]1Cc1cccc(-c2ccccc2)c1 [Compound 42, N-((6S,7S)-6-([1,1′-biphenyl]-3-ylmethyl)-5-((R)-oxetane-2-carbonyl)-5-azaspiro[2.4]heptan-7-yl)cyclopropanesulfonamide]		
1 to 10 nM		A (Emax ranging between 90 and 100)	CS(=O)(=O)N[C@@H]1[C@H](Cc2cccc(-c3ccccc3)c2)N(C(=O)[C@H](O)C(F)(F)F)CC12CC2 [Compound 43, N-((6S,7S)-6-([1,1′-biphenyl]-3-ylmethyl)-5-((S)-3,3,3-trifluoro-2-hydroxypropanoyl)-5-azaspiro[2.4]heptan-7-yl)methanesulfonamide]		
10 to 100 nM	90 to 100		CS(=O)(=O)N[C@@H]1[C@H](Cc2cccc(-c3ccccc3)c2)N(C(=O)C2(C#N)CCO2)CC12CC2 (stereo partly drawn) [Compound 47, N-((6S,7S)-6-([1,1′-biphenyl]-3-ylmethyl)-5-(2-cyanooxetane-2-carbonyl)-5-azaspiro[2.4]heptan-7-yl)methanesulfonamide]		
	80 to 90		O=C([C@H]1CCO1)N1CC2(CC2)[C@H](NS(=O)(=O)CF)[C@@H]1Cc1cccc(-c2ccccc2)c1 [Compound 48, N-((6S,7S)-6-([1,1′-biphenyl]-3-ylmethyl)-5-((R)-oxetane-2-carbonyl)-5-azaspiro[2.4]heptan-7-yl)-1-fluoromethanesulfonamide]		
1 to 10 nM	90 to 100		CCS(=O)(=O)N[C@@H]1[C@H](Cc2cccc(-c3ccccc3)c2F)N(C(=O)[C@H]2CCO2)CC12CC2 [Compound 53, N-((6S,7S)-6-((2-fluoro-[1,1′-biphenyl]-3-yl)methyl)-5-((R)-oxetane-2-carbonyl)-5-azaspiro[2.4]heptan-7-yl)ethanesulfonamide]		
10 to 100 nM	90 to 100		CS(=O)(=O)N[C@@H]1[C@H](Cc2cccc(-c3ccccc3)c2)N(C(=O)[C@H]2CCO2)CC12CC2 [Compound 55, N-((6S,7S)-6-([1,1′-biphenyl]-3-ylmethyl)-5-((R)-oxetane-2-carbonyl)-5-azaspiro[2.4]heptan-7-yl)methanesulfonamide]		
1 to 10 nM	90 to 100		CS(=O)(=O)N[C@@H]1[C@H](Cc2cccc(-c3ccccc3)c2F)N(C(=O)[C@H](O)C(F)(F)F)CC12CC2 [Compound 56, N-((6S,7S)-6-((2-fluoro-[1,1′-biphenyl]-3-yl)methyl)-5-((S)-3,3,3-trifluoro-2-hydroxypropanoyl)-5-azaspiro[2.4]heptan-7-yl)methanesulfonamide]		
1 to 10 nM	90 to 100		CCS(=O)(=O)N[C@@H]1[C@H](Cc2cccc(-c3ccccc3)c2)N(C(=O)[C@H](O)C(F)(F)F)CC12CC2 [Compound 58, N-((6S,7S)-6-([1,1′-biphenyl]-3-ylmethyl)-5-((S)-3,3,3-trifluoro-2-hydroxypropanoyl)-5-azaspiro[2.4]heptan-7-yl)ethanesulfonamide]		
1 to 10 nM	90 to 100		CS(=O)(=O)N[C@@H]1[C@H](Cc2cc(F)cc(-c3ccccc3)c2F)N(C(=O)[C@H]2CCO2)CC12CC2 [Compound 59, N-((6S,7S)-6-((2,5-difluoro-[1,1′-biphenyl]-3-yl)methyl)-5-((R)-oxetane-2-carbonyl)-5-azaspiro[2.4]heptan-7-yl)methanesulfonamide]		
